Test results published in US12630557B2, “Salt and crystal form of pyrimidine compound, and preparation methods therefor” (Sichuan Kelun-Biotech Biopharmaceutical Co., Ltd., priority 2020, dated 2026).
Values after ≈ are worked out from the molar mass of the structure shown.

Assays:
[1] = Solubility determination at different pH; format: physicochemical; settings: aqueous buffer
[2] = Stability experiment under conditions of influencing factors (high temperature / high humidity); format: physicochemical; settings: for HPLC purity: area normalized purity
Source text: Stability data of the crystal form A of the fumarate salt of the compound I under conditions of influencing factors is provided in Table 17 (HPLC purity is area normalized purity).

[3] = Dynamic water adsorption (DVS) experiment; format: physicochemical; settings: 25° C.
Method: Device information: SMS (Surface Measurement Systems) Intrinsic
Experimental method: temperature: 25° C.; protective gas N2; maximum equilibration time: 120 min; RH range: 0%-90%-0%.

CCDC6-RET = molecular target: T1, CCDC6-RET (Homo sapiens, UniProt P07949); assay: HTRF KinEASE-TK RET enzyme inhibition; format: biochemical; settings: CCDC6-RET 0.3 nM, ATP 15 μM; read-out: Inhibitory IC50 on RET enzyme
T1 construct: the other entry of the earlier key: CCDC6 (Q16204, Coiled-coil domain-containing protein 6)
T1 sequence (P07949 with tags, fused parts or gaps): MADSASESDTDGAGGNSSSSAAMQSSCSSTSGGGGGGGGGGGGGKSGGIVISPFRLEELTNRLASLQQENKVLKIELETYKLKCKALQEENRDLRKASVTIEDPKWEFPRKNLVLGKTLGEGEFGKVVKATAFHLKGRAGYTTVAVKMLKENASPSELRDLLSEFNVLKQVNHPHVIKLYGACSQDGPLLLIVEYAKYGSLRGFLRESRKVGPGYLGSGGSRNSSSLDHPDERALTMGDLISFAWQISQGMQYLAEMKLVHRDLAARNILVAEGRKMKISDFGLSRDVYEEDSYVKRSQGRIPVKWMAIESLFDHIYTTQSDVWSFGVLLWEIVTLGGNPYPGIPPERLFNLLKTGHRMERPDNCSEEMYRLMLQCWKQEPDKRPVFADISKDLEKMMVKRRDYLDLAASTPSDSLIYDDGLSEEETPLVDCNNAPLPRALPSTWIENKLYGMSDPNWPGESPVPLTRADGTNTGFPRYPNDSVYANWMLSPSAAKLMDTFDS
Method: (§1) The inhibitory effects of the crystal form A of the fumarate salt of the compound I on the activity of wild-type RET, mutant-type RET (RET^V804M RET^V804L, and RET^M918T), and fusion-type RET (CCDC6-RET and KIF5B-RET) were determined using HTRF KinEASE-TK (Cisbio) kit.
(§2) After pre-incubation of the above different types of RET enzymes and different concentrations of the test compounds (9 concentration points) at room temperature for 30 min, a substrate and adenosine triphosphate (ATP) were added to initiate the reaction. After incubation at room temperature for 40 min, TK antibody-cryptate and streptavidin-XL665 were added, and after incubation at room temperature for 60 min, the detection was performed.
(§3) With the solvent group (DMSO) as the negative control and the buffer group (without RET enzyme) as the blank control, the relative inhibitory activity percentages of the compound at different concentrations were computed as per the following equation: Relative inhibitory activity percentage=1−(compound group of different concentrations-blank control)/(negative control-blank control)*100%
(§4) The relative inhibitory activity percentages of the compound at different concentrations were plotted with respect to the compound concentrations, and the curve was fitted in accordance with a four-parameter model to compute the IC50 value as per the following equation: y=min+(max−min)/(1+(x/IC50)^(−Hillslope)) • where y is the relative inhibitory activity percentage, max and min are a maximum value of the fitted curve, and a minimum value of the fitted curve respectively, x is a logarithmic concentration of the compound, and Hillslope is a slope of the curve.

RET^M918T = RET^M918T (Homo sapiens, UniProt P07949, M918T); assay: HTRF KinEASE-TK RET enzyme inhibition; format: biochemical; settings: RET^M918T 0.3 nM, ATP 15 μM; read-out: Inhibitory IC50 on RET enzyme
Sequence of RET^M918T (P07949 29-1114 M918T): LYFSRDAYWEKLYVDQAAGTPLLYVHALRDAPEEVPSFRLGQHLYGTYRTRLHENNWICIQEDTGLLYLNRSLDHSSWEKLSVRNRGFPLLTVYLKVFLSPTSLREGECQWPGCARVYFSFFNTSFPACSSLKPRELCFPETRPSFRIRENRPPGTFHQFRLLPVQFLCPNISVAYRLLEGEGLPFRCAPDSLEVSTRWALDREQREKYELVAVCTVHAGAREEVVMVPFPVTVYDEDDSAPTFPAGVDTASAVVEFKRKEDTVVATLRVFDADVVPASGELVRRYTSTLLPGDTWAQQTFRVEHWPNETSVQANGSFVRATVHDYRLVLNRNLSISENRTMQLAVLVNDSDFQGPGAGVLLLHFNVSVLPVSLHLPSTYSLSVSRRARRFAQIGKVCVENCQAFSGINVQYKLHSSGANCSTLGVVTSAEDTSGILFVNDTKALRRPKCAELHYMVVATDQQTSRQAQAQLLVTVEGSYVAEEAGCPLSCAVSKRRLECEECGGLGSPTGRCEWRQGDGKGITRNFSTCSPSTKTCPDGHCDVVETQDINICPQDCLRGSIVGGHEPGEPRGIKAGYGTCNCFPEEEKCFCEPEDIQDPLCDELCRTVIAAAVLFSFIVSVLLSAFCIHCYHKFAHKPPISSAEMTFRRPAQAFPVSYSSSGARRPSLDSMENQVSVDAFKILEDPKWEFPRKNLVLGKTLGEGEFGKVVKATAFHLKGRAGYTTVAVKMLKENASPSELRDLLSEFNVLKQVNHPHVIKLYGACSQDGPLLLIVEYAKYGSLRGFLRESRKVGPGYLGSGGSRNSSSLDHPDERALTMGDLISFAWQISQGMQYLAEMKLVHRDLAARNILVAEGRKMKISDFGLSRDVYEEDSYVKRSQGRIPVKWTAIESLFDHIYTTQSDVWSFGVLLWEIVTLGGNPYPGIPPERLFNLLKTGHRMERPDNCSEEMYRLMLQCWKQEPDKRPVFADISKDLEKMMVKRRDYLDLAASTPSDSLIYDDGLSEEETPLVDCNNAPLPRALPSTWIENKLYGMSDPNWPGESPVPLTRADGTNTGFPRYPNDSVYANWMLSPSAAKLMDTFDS
Method: as §1, §2, §3, §4

RET^V804L = RET^V804L (Homo sapiens, UniProt P07949, V804L); assay: HTRF KinEASE-TK RET enzyme inhibition; format: biochemical; settings: RET^V804L 0.6 nM, ATP 10 μM; read-out: Inhibitory IC50 on RET enzyme
Sequence of RET^V804L (P07949 29-1114 V804L): as the sequence (P07949 29-1114 M918T) above, with V776L, T890M counted along it
Method: as §1, §2, §3, §4

RET^V804M = RET^V804M (Homo sapiens, UniProt P07949, V804M); assay: HTRF KinEASE-TK RET enzyme inhibition; format: biochemical; settings: RET^V804M 0.6 nM, ATP 15 μM; read-out: Inhibitory IC50 on RET enzyme
Sequence of RET^V804M (P07949 29-1114 V804M): as the sequence (P07949 29-1114 M918T) above, with V776M, T890M counted along it
Method: as §1, §2, §3, §4

wild-type RET = wild-type RET (Homo sapiens, UniProt P07949); assay: HTRF KinEASE-TK RET enzyme inhibition; format: biochemical; settings: RET 0.2 nM, ATP 30 μM; read-out: Inhibitory IC50 on RET enzyme
Sequence of wild-type RET (P07949 29-1114): as the sequence (P07949 29-1114 M918T) above, with T890M counted along it
Method: as §1, §2, §3, §4

[4] = Pharmacokinetic study in mice; format: in vivo; settings: female Balb/c mice, PO 1 mg/kg, plasma compound I
Method: Female Balb/c mice (6 mice) were orally administered with 1 mg/kg of the crystal form A of the fumarate salt of the compound I by gavage. The compound was first dissolved with 0.5% methylcellulose solution and ultrasonicated to ensure complete dissolution or uniform suspension of the compound. 30 min, 1 […], and 24 h after administration, 0.2 mL of blood (EDTA-K2 anticoagulated) was venously collected. The collected whole blood was temporarily stored in an ice box, and centrifuged for 10 min within 2 h to separate the plasma (4° C.). The collected plasma was stored in a refrigerator at -80° C. prior to testing. The blood concentration of the compound I was detected by LC-MS/MS, and the linear range was from 10 to 10000 ng/mL.

[5] = High humidity 25° C. ± 2° C./92.5% RH ± 5% RH, Day 30
[6] = High temperature 60° C. ± 2° C., Day 30

In the case of `Cc1cc(Nc2cc(C)[nH]n2)nc(-c2ccc(N3CC4CC(C3)N4Cc3ccc(-n4cc(F)cn4)nc3)nc2)n1`, the solubility ([1]; Buffer pH 1.0) is reported as ≥ 12200 µg/mL, the solubility ([1]; Buffer pH 2.0) is reported as 3500 µg/mL (≈ 6.51 mM) and the solubility ([1]; Buffer pH 3.0) is reported as 2500 µg/mL (≈ 4.65 mM). For the same compound, the Appearance ([2]; Day 0) was “White solid”, the HPLC purity ([2]; Day 0) was 99.6% and the Appearance [2, 5] was “White solid”. The Crystal form [2, 5] was “form A”, the HPLC purity [2, 5] was 99.5% and the Appearance [2, 6] was “White solid”. For the same compound, the Crystal form [2, 6] was “form A”, the HPLC purity [2, 6] was 99.3% and the “crystal form before and after the DVS test” value ([3]; RH range 0%-90%-0%) was “remained changed”. For the same compound, the “desorption of adsorbed water (DVS)” value ([3]; humidity decreased from 90% to 0%) was “fully desorbed”, the “water absorbed (DVS)” value ([3]; humidity increased to 90%) was “about 0.7%” and the IC50 (CCDC6-RET) was 2.48 ± 1 nM. It also gave an IC50 (RET^M918T) of 2.23 ± 0.64 nM, an IC50 (RET^V804L) of 1.59 ± 0.51 nM and an IC50 (RET^V804M) of 0.6 ± 0.2 nM. For the same compound, the IC50 (wild-type RET) was 0.56 ± 0.09 nM, the Cl [4] was 1.47 mL/min/kg and the Vd [4] was 0.356 L/kg. For the same compound, the AUC(0-inf) ([4]; mouse) was 11400 ng·h/mL, the AUC(0-t) ([4]; mouse) was 11400 ng·h/mL and the Cmax ([4]; mouse) was 2060 ng/mL. It also gave a Tmax ([4]; mouse) of 1 h and a half-life ([4]; mouse) of 2.81 h.
